According to patent US6355662B1, “Non-peptidyl inhibitors of a VLA-4 dependent cell binding useful in treating inflammatory, autoimmune, and respiratory diseases” (Pfizer Inc, priority 1998, dated 2002):

Work on `Cc1ccccc1NC(=O)Nc1ccc(CC(=O)NC(CC(C)C)C2=NOC(CCC(=O)O)(CCC(=O)O)C2)cc1` (stereo not shown) [Example 6, 3-[5-(2-Carboxy-ethyl)-3-(3-methyl-1-{2-[4-(3-o-tolyl-ureido)-phenyl]-acetylamino}-butyl)-4,5dihydro-isoxazol-5-yl]-propionic acid] yielded a melting point of 173 to 175 °C. In the case of `CCOC(=O)CC(=O)c1cc(C(CC(C)C)NC(=O)Cc2ccc(NC(=O)Nc3ccccc3Cl)cc2)no1` (stereo not shown) [Example 26, 3-{3-[1-(2-{4-[3-(2-Chloro-phenyl)-ureido]-phenyl}-acetylamino)-3-methyl-butyl]-isoxazol-5-yl}-3-oxo-propionic acid ethyl ester], the melting point is reported as 150 to 152 °C. `Cc1ccccc1NC(=O)Nc1ccc(CC(=O)N2CCN(CCC(=O)O)C(=O)C2Cc2ccccc2)cc1` (stereo not shown) [Example 4, (3-Benzyl-2-oxo-4-{[4-(3-o-tolyl-ureido)-phenyl]-acetyl}-piperazin-1-yl)-propionic acid] gave a melting point of 103 to 105 °C. Compound `CC(C)CC(NC(=O)Cc1ccc(NC(=O)Nc2ccccc2F)cc1)c1ncc(CCC(=O)O)s1` (stereo not shown) [Example 17, 3-{2-[1-(2-{4-[3-(2-Fluoro-phenyl)-ureido]-phenyl}-acetylamino)-3-methyl-butyl]-thiazol-5-yl}-propionic acid] has a melting point of 83 to 85 °C. Compound `CC(C)CC(NC(=O)Cc1ccc(NC(=O)Nc2ccccn2)cc1)c1ncc(CCC(=O)O)s1` (stereo not shown) [Example 11, [2-(3-Methyl-1-{2-[4-(3-pyridin-2-yl-ureido)-phenyl]-acetylamino}-butyl)-thiazol-5-yl]-propionic acid] has a melting point of 173 to 175 °C. `Cc1cccc(Cl)c1NC(=O)Nc1ccc(CC(=O)NC(CC(C)C)c2ncc(CCC(=O)O)s2)cc1` (stereo not shown) [Example 21, 3-{2-[1-(2-{4-[3-(2-Chloro-6-methyl-phenyl)-ureido]-phenyl}-acetylamino)-3-methyl-butyl]-thiazol-5-yl}-propionic acid] showed a melting point of 160 to 162 °C. With `CC(C)CC(NC(=O)Cc1ccc(NC(=O)Nc2ccccc2Cl)cc1)c1ncc(CCC(=O)O)s1` (stereo not shown) [Example 15, 3-{2-[1-(2-{4-[3-(2-Chloro-phenyl)-ureido]-phenyl}-acetylamino)-3-methyl-butyl]-thiazol-5-yl}-propionic acid] the melting point was 173 to 175 °C. Work on `CC(C)CC(NC(=O)Cc1ccc(NC(=O)Nc2c(Cl)cccc2Cl)cc1)c1ncc(CCC(=O)O)s1` (stereo not shown) [Example 19, 3-{2-[1-(2-{4-[3-(2,6-Dichloro-phenyl)-ureido]-phenyl}-acetylamino)-3-methyl-butyl]-thiazol-5-yl}-propionic acid] yielded a melting point of 148 to 150 °C. In the case of `COc1ccccc1NC(=O)Nc1ccc(CC(=O)NC(CC(C)C)c2ncc(CCC(=O)O)s2)cc1` (stereo not shown) [Example 16, 3-{2-[1-(2-{4-[3-(2-Methoxy-phenyl)-ureido]-phenyl}-acetylamino)-3-methyl-butyl]-thiazol-5-yl}-propionic acid], the melting point is reported as 197 to 198 °C. Work on `CC(C)CC(NC(=O)Cc1ccc(NC(=O)Nc2ccccn2)cc1)c1cc(CCC(=O)O)on1` (stereo not shown) [Example 10, [3-(3-Methyl-1-{2-[4-(3-pyridin-2-yl-ureido)-phenyl]-acetylamino}-butyl)-isoxazol-5-yl]-propionic acid] yielded a melting point of 159 to 161 °C. Compound `Cc1ccccc1NC(=O)Nc1ccc(CC(=O)NC2(c3cc(CCC(=O)O)on3)CCCC2)cc1` [Example 9, 3-[3-(1-{2-[4-(3-o-Tolyl-ureido)-phenyl]-acetylamino}-cyclopentyl)-isoxazol-5-yl]-propionic acid] has a melting point of 195 to 197 °C. `Cc1ccccc1NC(=O)Nc1ccc(CC(=O)NC(CC(C)C)c2cc(/C=C/C(=O)O)on2)cc1` (stereo not shown) [Example 18, 3-[3-(3-Methyl-1-{2-[4-(3-o-tolyl-ureido)-phenyl]-acetylamino}-butyl)-isoxazol-5-yl]-acrylic acid] showed a melting point of 136 to 138 °C. `Cc1cccc(C)c1NC(=O)Nc1ccc(CC(=O)NC(CC(C)C)c2ncc(CCC(=O)O)s2)cc1` (stereo not shown) [Example 20, 3-{2-[1-(2-{4-[3-(2,6-Dimethyl-phenyl)-ureido]-phenyl}-acetylamino)-3-methyl-butyl]-thiazol-5-yl}-propionic acid] showed a melting point of 125 to 127 °C. For `CC(C)CC(NC(=O)Cc1ccc(NC(=O)Nc2ccccc2)cc1)c1ncc(CCC(=O)O)s1` (stereo not shown) [Example 22, 3-[2-(3-Methyl-1-{2-[4-(3-phenyl-ureido)-phenyl]-acetylamino}-butyl)-thiazol-5-yl]-propionic acid], the melting point was 146 to 148 °C. For `Cc1ccccc1NC(=O)Nc1ccc(CC(=O)NC(CC(C)C)c2ncc(CCC(=O)O)o2)cc1` (stereo not shown) [Example 8, [2-(3-Methyl-1-{2-[4-(3-o-tolyl-ureido)-phenyl]-acetylamino}-butyl)oxazol-5-yl]-propionic acid], the melting point was 168 to 170 °C. `CC(C)CC(NC(=O)Cc1ccc(NC(=O)Nc2ccccc2Cl)cc1)c1cc(CCC(=O)O)on1` (stereo not shown) [Example 24, 3-{3-[1-(2-{4-[3-(2-Chloro-phenyl)-ureido]-phenyl}-acetylamino)-3-methyl-butyl]-isoxazol-5-yl}propionic acid] gave a melting point of 143 to 145 °C.
